Earlier results, collected in US7851190B2, “Biosynthetic gene cluster for leptomycins” (priority 2003, dated 2010).

Tests used:
HIV-1 Rev = details: in vitro; FIG. 2
[1] = tested on: adriamycin, amsacrine and mitoxantrone resistant P388 leukemia, other leukemias, B16 melanoma, Ridgway osteogenic and M5076 sarcomas and mammary adenocarinoma

Row | SMILES | difference in activity between a Rev-dependent assay and cytotoxicity to the same cells (HIV-1 Rev) | acute toxicity ([1]; exacerbated upon more frequent or oral administration) | antitumor activity ([1]; mouse murine and xenograph cancer models, low doses)
1 | CCC(=C/[C@H](C)C/C=C/C(C)=C/[C@@H](C)C(=O)[C@@H](C)[C@H](O)[C@@H](C)C/C(C)=C/C(=O)O)/C=C/[C@@H]1OC(=O)C=C[C@@H]1C [LMB, Leptomycin B] | approx. 250 fold | gastrointestinal | Activity was observed at low doses
2 | CCOC(=O)/C=C\n1ncnc1-c1cc(Cl)ccc1N [PKF050-638] | 75 fold | – | –
